Here are results for 15 molecules from ChEMBL document CHEMBL1201862, “PubChem BioAssay data set” (2004).

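Five concentrations, 48 hours, 96-well plates. At the GI50, growth is halved.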 Activity calls are given as the source filed them. Rule as the data show it: active = GI50 up to about 1.1 µM and inactive = higher.

Among the test systems are NCI-H23; NCI-H226; SNB-75; K562; 786-0; COLO 205; EKVX; NCI-H460; TK-10; Malme-3M; CCRF-CEM; HL-60; UO-31; SNB-19; SK-OV-3.
Assay in all cases: NCI anticancer screen, dose series, 48 h

`COC(=O)CC1NC(=O)C1C(C)(OC)OC` (stereo not given): the GI50 is > 100 µM (inactive) in the test on NCI-H23; > 100 µM (inactive) in the test with NCI-H226; 30.3 µM (inactive) in the test on SNB-75; > 100 µM (inactive) in the test with K562; > 100 µM (inactive) with 786-0; > 100 µM (inactive) in the test on COLO 205. Besides, the GI50 in the test on EKVX, in the test on NCI-H460, in the test on TK-10, with Malme-3M, with CCRF-CEM and in the test with HL-60 was > 100 µM (inactive) throughout. The GI50 in the test on UO-31 and in the test on SNB-19 was > 100 µM (inactive) throughout.
For `COC1OC2COC(c3ccccc3)OC2C(O)C1Br` (stereo not given), the GI50 with NCI-H23, with K562, in the test on 786-0, in the test with COLO 205, in the test with NCI-H460 and in the test with TK-10 was > 100 µM (inactive) each time. The GI50 with Malme-3M, in the test on CCRF-CEM, in the test with HL-60 and with SNB-19 was > 100 µM (inactive) throughout.
Take `O=C1CC2Sc3ccccc3N=C2N1c1ccc(Cl)cc1Cl` (stereo not given): the GI50 in the test with NCI-H23 was 87.7 µM (inactive); in the test with NCI-H226, > 100 µM (inactive); in the test on SNB-75, 99.1 µM (inactive); with 786-0 it was 30.3 µM (inactive); in the test with COLO 205, > 100 µM (inactive); in the test with EKVX, > 100 µM (inactive). Further, the GI50 in the test with NCI-H460 was > 100 µM (inactive); with TK-10, > 100 µM (inactive); in the test with Malme-3M, 64.7 µM (inactive); with CCRF-CEM it was 17.1 µM (inactive); with HL-60, 18.8 µM (inactive); in the test with UO-31 it was 29.9 µM (inactive). In addition, the GI50 in the test with SNB-19 was 77.8 µM (inactive).
Regarding `COc1ccc2c3c([nH]c2c1[N+](=O)[O-])C(C)N(Cc1ccc([N+](=O)[O-])cc1)CC3` (stereo not given), the GI50 with NCI-H23 is 6.7 µM (inactive); with NCI-H226, 18.1 µM (inactive); in the test with K562, 3.22 µM (inactive); in the test with 786-0, > 100 µM (inactive); in the test with COLO 205 it was 14 µM (inactive); with EKVX it was 37.6 µM (inactive). For the same molecule, the GI50 in the test with NCI-H460 is 11.8 µM (inactive); with TK-10 it was 29.6 µM (inactive); with CCRF-CEM, 6.76 µM (inactive); with HL-60, 3.22 µM (inactive); in the test on UO-31, 13.2 µM (inactive); in the test with SNB-19, 19.3 µM (inactive).
`CCOC(=O)NC(=O)c1cn(CCCCCCCCCCC(=O)N2CCN(CCn3cc(C(=O)NC(=O)OCC)c(=O)[nH]c3=O)CC2)c(=O)[nH]c1=O`: the GI50 in the test with SK-OV-3, in the test on NCI-H23, in the test on SNB-75, in the test on K562, in the test with 786-0 and in the test with COLO 205 was > 100 µM (inactive) each time. The GI50 with EKVX, in the test with NCI-H460, in the test on TK-10, in the test on CCRF-CEM, with HL-60 and in the test on SNB-19 was > 100 µM (inactive) in each case.
With `CC1=C(c2ccccc2)CON(c2ccccc2)C1`, the GI50 is > 100 µM (inactive) in the test on SK-OV-3; 51.5 µM (inactive) in the test on NCI-H23; 85.7 µM (inactive) with NCI-H226; 30.1 µM (inactive) in the test on K562; 36.8 µM (inactive) with 786-0; 33.1 µM (inactive) in the test on COLO 205. Further, the GI50 in the test with EKVX was 46.6 µM (inactive); in the test on NCI-H460, 35 µM (inactive); in the test with Malme-3M it was 56.4 µM (inactive); in the test with CCRF-CEM, 25.1 µM (inactive); with HL-60 it was 26.6 µM (inactive); with UO-31 it was 29.7 µM (inactive). In the test on SNB-19, the GI50 is 39.4 µM (inactive).
With `O=S(=O)(O)C(F)(F)C(F)(F)C(F)(F)C(F)(F)F`, the GI50 in the test on SK-OV-3, in the test on NCI-H23, in the test with SNB-75, in the test with K562, in the test on 786-0 and with COLO 205 was > 100 µM (inactive) throughout. Moreover, the GI50 with EKVX, in the test on NCI-H460, with TK-10, with Malme-3M, with CCRF-CEM and in the test on HL-60 was > 100 µM (inactive) each time. Further, the GI50 in the test on UO-31 and in the test on SNB-19 was > 100 µM (inactive) in each case.
With `c1ccc(SC(CCCCOC2CCCCO2)Sc2ccccc2)cc1` (stereo not given), the GI50 in the test on SK-OV-3 is > 100 µM (inactive); in the test on NCI-H23, 40.8 µM (inactive); in the test on SNB-75, 49.8 µM (inactive); in the test on K562, 52 µM (inactive); in the test with 786-0 it was > 100 µM (inactive); with COLO 205, 94.6 µM (inactive). The GI50 with EKVX was > 100 µM (inactive); in the test with NCI-H460 it was 99.1 µM (inactive); with TK-10, > 100 µM (inactive); in the test on Malme-3M, > 100 µM (inactive); in the test on CCRF-CEM, 29.2 µM (inactive); with HL-60 it was 20.4 µM (inactive). Moreover, the GI50 with UO-31 was 13.4 µM (inactive); in the test on SNB-19, > 100 µM (inactive).
For the molecule `O=C1c2ccccc2C(=O)N1C/C=C/CO`, the GI50 with SK-OV-3, in the test with NCI-H226, in the test on SNB-75, in the test with K562, in the test with 786-0 and in the test with COLO 205 was > 100 µM (inactive) throughout. Further, the GI50 with NCI-H460, in the test on TK-10, in the test with Malme-3M, with CCRF-CEM, with HL-60 and in the test with UO-31 was > 100 µM (inactive) in each case. The GI50 with SNB-19 is > 100 µM (inactive).
On to `COc1cc2nc(Sc3c([N+](=O)[O-])ncn3C)[nH]c2cc1OC`, for which the GI50 in the test with SK-OV-3 is 79.4 µM (inactive); in the test with NCI-H23, 26.1 µM (inactive); in the test on NCI-H226 it was 28.3 µM (inactive); in the test on SNB-75, 28.4 µM (inactive); in the test on 786-0, 71 µM (inactive); in the test on COLO 205, 13.6 µM (inactive). Moreover, the GI50 with EKVX was 21.2 µM (inactive); in the test on NCI-H460, 49.9 µM (inactive); in the test on TK-10, 26.9 µM (inactive); in the test with Malme-3M, 56.2 µM (inactive); with UO-31 it was 46 µM (inactive); in the test with SNB-19 it was 26.1 µM (inactive).
`COC1CC2C3/C(=N/Nc4ccc([N+](=O)[O-])cc4[N+](=O)[O-])CCC2(C)C3C1` (stereo not given): the GI50 is > 10 µM (inactive) in the test on SK-OV-3; > 10 µM (inactive) in the test on NCI-H23; > 10 µM (inactive) with NCI-H226; > 10 µM (inactive) in the test with SNB-75; 75.5 µM (inactive) with K562; > 10 µM (inactive) in the test with 786-0. For the same molecule, the GI50 in the test with COLO 205 was > 10 µM (inactive); with NCI-H460 it was > 100 µM (inactive); in the test on TK-10, > 100 µM (inactive); in the test with Malme-3M it was > 10 µM (inactive); in the test with HL-60, 52.6 µM (inactive); in the test on UO-31, > 10 µM (inactive). For the same molecule, the GI50 in the test on SNB-19 is > 10 µM (inactive).
For the molecule `O=C(NC(=O)c1cn(CCN2CCN(C(=O)NCCCCCCNC(=O)N3CCN(CCn4cc(C(=O)NC(=O)OCc5ccccc5)c(=O)[nH]c4=O)CC3)CC2)c(=O)[nH]c1=O)OCc1ccccc1`, the GI50 in the test with SK-OV-3 is > 100 µM (inactive); with NCI-H23 it was > 100 µM (inactive); with SNB-75 it was 60.8 µM (inactive); in the test on K562, > 100 µM (inactive); in the test on 786-0, > 100 µM (inactive); in the test with COLO 205, > 100 µM (inactive). The GI50 in the test with EKVX, in the test with NCI-H460, with TK-10, in the test with Malme-3M, with CCRF-CEM and with HL-60 was > 100 µM (inactive) in each case. Further, the GI50 with UO-31 and with SNB-19 was > 100 µM (inactive) each time.
`C1=CC=C2NCCC/N=C3/C=CC=CC=C3NCCC/N=C\2C=C1`: the GI50 in the test on SK-OV-3, with NCI-H226, with SNB-75, in the test on K562, in the test on 786-0 and in the test with COLO 205 was > 100 µM (inactive) in each case. In addition, the GI50 in the test with EKVX, in the test on NCI-H460, in the test with TK-10, with CCRF-CEM, with HL-60 and in the test on UO-31 was > 100 µM (inactive) in each case. Also, in the test with SNB-19, the GI50 is > 100 µM (inactive).
As for `CN1N=C2c3ccccc3CC[C@H]2C1c1cccc(O)c1` (stereo not given in full), the GI50 in the test with SK-OV-3 is > 100 µM (inactive); in the test with NCI-H23, > 100 µM (inactive); with NCI-H226, > 100 µM (inactive); in the test on K562 it was 74.1 µM (inactive); in the test with 786-0 it was > 100 µM (inactive); in the test on COLO 205, > 100 µM (inactive). Moreover, the GI50 was > 100 µM (inactive) with EKVX; 81.1 µM (inactive) in the test with NCI-H460; > 100 µM (inactive) with TK-10; 0.463 µM (active) with Malme-3M; > 100 µM (inactive) in the test on CCRF-CEM; > 100 µM (inactive) in the test on HL-60. For the same molecule, the GI50 with UO-31 was 32.4 µM (inactive); with SNB-19, > 100 µM (inactive).
In the case of `CC(=O)Nc1ccc(C(=O)N2N=C(C)/C(=C/c3cccc([N+](=O)[O-])c3)C2=O)cc1`, the GI50 with NCI-H23, in the test with NCI-H226, in the test on SNB-75, with K562, with 786-0 and in the test on COLO 205 was > 100 µM (inactive) each time. Besides, the GI50 in the test on EKVX, with NCI-H460, with TK-10, in the test with Malme-3M, in the test on CCRF-CEM and with HL-60 was > 100 µM (inactive) in each case. Moreover, the GI50 in the test with UO-31 and in the test on SNB-19 was > 100 µM (inactive) each time.
